{"source": "patent US20250195542A1", "about": "“METABOLIC DISEASE THERAPEUTIC AGENT OR PREVENTIVE AGENT” (Peking University, priority 2022, published 2025)", "molecular_target": "T1, RDH10 (Mus musculus, UniProt Q8VCH7)", "T1 construct": "Take approximately 50 mg of liver tissue from C57BL/6J mice and add 1 mL of RIPA lysis buffer; from tissue; host or cells: mouse liver (C57BL/6J) lysate", "T1 sequence (Q8VCH7 1-341)": "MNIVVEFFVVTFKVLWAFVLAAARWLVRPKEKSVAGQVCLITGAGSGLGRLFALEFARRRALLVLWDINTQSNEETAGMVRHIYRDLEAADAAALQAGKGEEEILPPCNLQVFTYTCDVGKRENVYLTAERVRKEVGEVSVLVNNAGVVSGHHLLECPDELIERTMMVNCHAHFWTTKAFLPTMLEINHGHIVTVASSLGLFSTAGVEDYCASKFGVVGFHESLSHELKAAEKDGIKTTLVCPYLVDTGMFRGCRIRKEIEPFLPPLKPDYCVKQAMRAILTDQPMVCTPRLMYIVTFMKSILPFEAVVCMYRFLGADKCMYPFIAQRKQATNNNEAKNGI", "test": "Protein fishing (pull-down) with molecular probe and proteomics analysis", "format": "binding, C57BL/6J mice", "protocol": "• 1. Preparation of Liver Protein: Take approximately 50 mg of liver tissue from C57BL/6J mice and add 1 mL of RIPA lysis buffer. Lyse the proteins on ice, then centrifuge at 12,000 rpm for 30 minutes at 4° C. Collect the supernatant, measure the protein concentration using BCA method, and dilute to 1 mg/mL with PBS. • 2. Sample Preparation: Prepare new 1.5 mL EP tubes and divide them into control group, drug group, and competitive inhibition group. Add 100 μL of PBS solution containing 40 μM Biotin to the control group, 100 μL of PBS solution containing 40 μM ACS-biotin (prepared in Example 1) to the drug group, and 100 μL of PBS solution containing 40 μM ACS-biotin and 400 μM ACS to the competitive inhibition group. Then, add 100 μL of liver protein lysate (1 mg/mL) to each tube and incubate on a shaking incubator at 4° C. for 2 hours. • 3. Washing Streptavidin Beads: Add 100 μL of streptavidin beads to new 1.5 mL EP tubes and centrifuge at 2,700 rpm for 1 minute. Discard the supernatant and wash the beads with 100 μL of PBS three times. • 4. Binding and Washing: Add the solutions from step 2 to the washed streptavidin beads. Incubate on a shaking incubator at 4° C. for 2 hours, then centrifuge at 2,700 rpm for 1 minute. Discard the supernatant and wash the beads with 100 μL of PBS three times. • 5. Protein Elution: Add 50 μL of PBS to the beads, mix well, and then add 5×SDS-PAGE sample buffer. Boil for 5 minutes and centrifuge at 13,000 rpm for 5 minutes. Store the supernatant at −20° C. for SDS-PAGE gel electrophoresis. • 6. Protein Detection: Stain with Coomassie Brilliant Blue and cut the gel for proteomics analysis."}
{"substance": "25S-Antcin C—CO—NH-PEG2-biotin [ACS-biotin]", "values": [{"measurement": "log2 (ACS-biotin/ACS-biotin+ACS) for RDH10 protein", "setting": "40 μM ACS-biotin vs 40 μM ACS-biotin + 400 μM ACS, FIG. 14C", "result": "> 0"}, {"measurement": "log2 (ACS-biotin/Biotin) for RDH10", "setting": "40 μM ACS-biotin vs 40 μM Biotin, mouse liver protein lysate, FIG. 14B", "result": "> 6"}]}
